Reference: ChEMBL document CHEMBL1201861, “Genomics of Drug Sensitity in Cancer screening data, Wellcome Trust Sanger Institute”

What was measured:
CHP-134 = test: SANGER: Inhibition of human CHP-134 cell growth in a cell viability assay.; format: functional, cell-based
TI-73 = test: cells; format: functional, cell-based; conditions: Homo sapiens;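 also: cell viability assay measuring how much compounds suppress growth of the cultured cell line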
Description: SANGER: Inhibition of human TI-73 cell growth in a cell viability assay.

LU-135 = test: cells; format: functional, cell-based; conditions: Homo sapiens
Description: SANGER: Inhibition of human LU-135 cell growth in a cell viability assay.

NCI-H2291 = test: cells; format: functional, cell-based; conditions: Homo sapiens
Description: SANGER: Inhibition of human NCI-H2291 cell growth in a cell viability assay.

ZR-75-30 = test: cells; format: functional, cell-based; conditions: Homo sapiens;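 also: growth inhibition of ZR-75-30 cells, measured with a cell viability readout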
Description: SANGER: Inhibition of human ZR-75-30 cell growth in a cell viability assay.

HuO9 = test: cells; format: functional, cell-based, Homo sapiens; conditions: Homo sapiens, HuO9;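 also: growth inhibition of HuO9 cells, read out with a cell viability assay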
Description: SANGER: Inhibition of human HuO9 cell growth in a cell viability assay.

NCI-H2029 = test: cells; format: functional, cell-based; conditions: Homo sapiens;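 also: Read-out is a viability assay on the cultured cells, and IC50 is the concentration that suppresses cell growth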
Description: SANGER: Inhibition of human NCI-H2029 cell growth in a cell viability assay.

MEL-JUSO = test: cells; format: functional, cell-based, Homo sapiens; conditions: Homo sapiens, MEL-JUSO;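 also: growth inhibition of human MEL-JUSO cells, read out with a cell viability assay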
Description: SANGER: Inhibition of human MEL-JUSO cell growth in a cell viability assay.

D-566MG = test: cells; format: functional, cell-based; conditions: Homo sapiens
D-423MG = test: cells; format: functional, cell-based; conditions: Homo sapiens
Description: SANGER: Inhibition of human D-423MG cell growth in a cell viability assay.

NCI-H1573 = test: cells; format: functional, cell-based; conditions: Homo sapiens;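 also: growth inhibition of NCI-H1573 cells, read out with a cell viability assay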
Description: SANGER: Inhibition of human NCI-H1573 cell growth in a cell viability assay.

HCT-15 = test: cells; format: functional, cell-based, Homo sapiens; conditions: Homo sapiens, HCT-15;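 also: cell viability readout, IC50 reflecting suppression of HCT-15 cell growth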
Description: SANGER: Inhibition of human HCT-15 cell growth in a cell viability assay.

CFPAC-1 = test: cells; format: functional, cell-based; conditions: Homo sapiens;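 also: cell viability readout used to gauge suppression of CFPAC-1 cell proliferation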
Description: SANGER: Inhibition of human CFPAC-1 cell growth in a cell viability assay.

23132-87 = test: cells; format: functional, cell-based, Homo sapiens; conditions: Homo sapiens
Description: SANGER: Inhibition of human 23132-87 cell growth in a cell viability assay.

EPLC-272H = test: cells; format: functional, cell-based; conditions: Homo sapiens
Description: SANGER: Inhibition of human EPLC-272H cell growth in a cell viability assay.

RH-18 = test: cells; format: functional, cell-based; conditions: Homo sapiens, Rh18;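 also: growth inhibition of human RH-18 cells, read out with a cell viability assay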
Description: SANGER: Inhibition of human RH-18 cell growth in a cell viability assay.

CCOc1nc(NC(=O)Cc2cc(OC)ccc2OC)cc(N)c1C#N
IC50 (CHP-134): > 10 µM | IC50 (TI-73): > 10 µM | IC50 (LU-135): > 10 µM | IC50 (NCI-H2291): > 10 µM | IC50 (ZR-75-30): > 10 µM | IC50 (HuO9): > 10 µM | IC50 (NCI-H2029): > 10 µM | IC50 (MEL-JUSO): > 10 µM | IC50 (D-566MG): > 10 µM | IC50 (D-423MG): > 10 µM | IC50 (NCI-H1573): > 10 µM | IC50 (HCT-15): > 10 µM | IC50 (CFPAC-1): > 10 µM | IC50 (23132-87): > 10 µM | IC50 (EPLC-272H): > 10 µM | IC50 (RH-18): > 10 µM

CC(=O)O[C@@H]1[C@@H](OC(C)=O)[C@@H](O)[C@H](Oc2c(-c3ccc(O)cc3)oc3cc(O)cc(O)c3c2=O)O[C@H]1C
IC50 (CHP-134): > 10 µM | IC50 (TI-73): > 10 µM | IC50 (LU-135): > 10 µM | IC50 (NCI-H2291): > 10 µM | IC50 (ZR-75-30): > 10 µM | IC50 (HuO9): > 10 µM | IC50 (NCI-H2029): > 10 µM | IC50 (MEL-JUSO): > 10 µM | IC50 (D-566MG): > 10 µM | IC50 (D-423MG): > 10 µM | IC50 (NCI-H1573): > 10 µM | IC50 (HCT-15): > 10 µM | IC50 (CFPAC-1): > 10 µM | IC50 (23132-87): > 10 µM | IC50 (EPLC-272H): > 10 µM | IC50 (RH-18): > 10 µM

O=C1N=C(NCc2cccs2)S/C1=C\c1ccc2ncccc2c1
IC50 (CHP-134): > 5 µM | IC50 (TI-73): > 5 µM | IC50 (LU-135): > 5 µM | IC50 (NCI-H2291): > 5 µM | IC50 (ZR-75-30): > 5 µM | IC50 (HuO9): > 5 µM | IC50 (NCI-H2029): > 5 µM | IC50 (D-566MG): > 5 µM | IC50 (D-423MG): > 5 µM | IC50 (NCI-H1573): > 5 µM | IC50 (CFPAC-1): > 5 µM | IC50 (EPLC-272H): > 5 µM | IC50 (RH-18): > 5 µM

COc1ccc(-c2ccc3c(N4CCOC[C@@H]4C)nc(N4CCOC[C@@H]4C)nc3n2)cc1CO [AZD-8055]
IC50 (CHP-134): 1.38 µM | IC50 (TI-73): 0.457 µM | IC50 (LU-135): > 2 µM | IC50 (NCI-H2291): > 2 µM | IC50 (ZR-75-30): > 2 µM | IC50 (HuO9): 0.407 µM | IC50 (NCI-H2029): > 2 µM | IC50 (D-566MG): 1.07 µM | IC50 (D-423MG): 1.03 µM | IC50 (NCI-H1573): 0.902 µM | IC50 (CFPAC-1): > 2 µM | IC50 (EPLC-272H): 0.431 µM | IC50 (RH-18): > 2 µM

O=c1cc(-c2cccc3c2Sc2ccccc2S3)oc(N2CCOCC2)c1 [KU-55933]
IC50 (CHP-134): > 10 µM | IC50 (TI-73): > 10 µM | IC50 (LU-135): > 10 µM | IC50 (NCI-H2291): > 10 µM | IC50 (ZR-75-30): > 10 µM | IC50 (HuO9): > 10 µM | IC50 (NCI-H2029): > 10 µM | IC50 (MEL-JUSO): > 10 µM | IC50 (D-566MG): > 10 µM | IC50 (D-423MG): > 10 µM | IC50 (NCI-H1573): > 10 µM | IC50 (HCT-15): > 10 µM | IC50 (CFPAC-1): > 10 µM | IC50 (23132-87): > 10 µM | IC50 (EPLC-272H): > 10 µM | IC50 (RH-18): > 10 µM

COc1ccc(C2=N[C@@H](c3ccc(Cl)cc3)[C@@H](c3ccc(Cl)cc3)N2C(=O)N2CCNC(=O)C2)c(OC(C)C)c1 [NUTLIN-3]
IC50 (CHP-134): 2.94 µM | IC50 (TI-73): > 8 µM | IC50 (LU-135): > 8 µM | IC50 (NCI-H2291): > 8 µM | IC50 (ZR-75-30): > 8 µM | IC50 (HuO9): > 8 µM | IC50 (NCI-H2029): > 8 µM | IC50 (D-566MG): > 8 µM | IC50 (D-423MG): > 8 µM | IC50 (NCI-H1573): > 8 µM | IC50 (CFPAC-1): > 8 µM | IC50 (EPLC-272H): > 8 µM | IC50 (RH-18): 4.28 µM

C=CCNC1=C2C[C@@H](C)C[C@H](OC)[C@H](O)[C@@H](C)/C=C(\C)[C@H](OC(N)=O)[C@@H](OC)/C=C\C=C(/C)C(=O)NC(=CC1=O)C2=O [TANESPIMYCIN]
IC50 (CHP-134): > 1 µM | IC50 (TI-73): 0.018 µM | IC50 (LU-135): > 1 µM | IC50 (NCI-H2291): 0.479 µM | IC50 (ZR-75-30): > 1 µM | IC50 (HuO9): 0.0759 µM | IC50 (NCI-H2029): > 1 µM | IC50 (MEL-JUSO): 0.0447 µM | IC50 (D-566MG): 0.0039 µM | IC50 (D-423MG): > 1 µM | IC50 (NCI-H1573): 0.456 µM | IC50 (HCT-15): > 1 µM | IC50 (CFPAC-1): 0.375 µM | IC50 (23132-87): 0.0695 µM | IC50 (EPLC-272H): 0.062 µM | IC50 (RH-18): > 1 µM
